Measurements published in patent US10464920B2, “Vicinal primary diamines associated with metal and/or free radical chelation motifs, and active against carbonyl and oxidative stress, and use thereof” (UNIVERSITE AMIENS PICARDIE JULES VERNE, priority 2015, dated 2019).

Tests used:
[1] = Formation of adducts with MDA, kinetic study by HPLC; format: physicochemical; conditions: compound 10 mM, MDA 20 mM, 37° C., after 24 h of reaction; no HPLC separation, trend
Protocol: The compounds to be tested are incubated at 37° C. in the presence of MGO or of MDA. A kinetic study aiming to report on the formation of adducts with the MGO or MDA is then carried out via HPLC analysis.
The compounds to be tested (30 μmol) are dissolved in PBS (1.5 mL). An aqueous solution (qsp 1.25 mL) of MGO at 40% in water (250 μmol) is then prepared and in parallel, MDA bis-(diOEt)-acetal (250 μmol) is set to react with a solution of HCl 1N (2 eq) in water (qsp 1.25 mL) for 1 h at room temperature. An aqueous solution of NaOH 0.05N is also required to neutralise the reaction medium (5 mL).
The solution of the compound to be tested (625 μL—final concentration in the medium=10 mM) is then set to react with the solution of MGO or of MDA prepared extemporaneously (125 μL—final concentration in the medium=20 mM) in the presence of NaOH 0.05 N (0.5 mL). […]
A sampling of each mixture (100 μL) is taken at regular intervals of time (0.25; 0.5; 1; 5 and 24 h) and stored at −20° C. in order to stop the reaction. […] The proportion of adducts formed with the MGO or MDA (generally, tR=4.1 to 6.8 min) is then measured in relation to the quantity of remaining free scavenger (generally, tR=0.8 to 4.6 min) after measurement of the area under the curve of the corresponding peaks on the UV spectrum (measurements taken for a representative sample).

[2] = system: murine endothelial brain cells (bEnd.3); assay: Anti-apoptotic properties after MGO-induced apoptosis (ELISA) on bEnd.3; format: cell-based; conditions: bEnd.3, pretreated 30 min with 10 or 100 μM, then 2 mM MGO, 24 h
Protocol: (§1) The apoptosis of cells is evaluated by an ELISA method using two murine monoconal antibodies with one directed against the DNA and the other against the histones ([…] Cell Death Detection kit, Roche, Meylan, France). This technique makes it possible to specifically measure the mono- and oligo-nucleosomes in the cytoplasmic fraction of the cell lysates.
(§2) Briefly, the cells are inoculated in 96-well or 24-well plates at a rate of 5.10^3 cells/well for the Bend.3 and PC12 and 75.10^3 cells/well for the MRCS in the suitable medium until subconfluence. The cells are then washed with PBS, then treated with various concentrations (10 μM, 100 μM) of the products to be tested in triplicates for 30 min to 1 h (cellules PC12 and Bend.3) or 1 h (cellules MRCS) at 37° C. The solution of MGO (1 mM for the cellules PC12, 2 mM for the cellules Bend.3 and MRCS) is then added for an incubation of 24 h. […] A peroxidase combined with anti-DNA antibodies then reacts in the presence of the substrate thereof, ABTS (diammonium 2,2′-azino-bis(3-ethylbenzothiazoline-6-sulphonate) and H2O2 in order to give a green derivative of which the optical density reflects the level of apoptosis. The measurement of the absorbance is taken at 405 nm using a Perkin Elmer 2103 Envision® microplate reader. A positive control is carried out in the presence of MGO alone. […]

[3] = system: rat pheochromocytoma cells, treated as neuronal cells (PC12); assay: Anti-apoptotic properties after MGO-induced apoptosis (ELISA) on PC12; format: cell-based; conditions: 24 h
Protocol: as §1
Briefly, the cells are inoculated in 96-well or 24-well plates at a rate of 5.10^3 cells/well for the Bend.3 and PC12 and 75.10^3 cells/well for the MRCS in the suitable medium until subconfluence. The cells are then washed with PBS, then treated with various concentrations (10 μM, 100 μM) of the products to be tested in triplicates for 30 min to 1 h (cellules PC12 and Bend.3) or 1 h (cellules MRCS) at 37° C. The solution of MGO (1 mM for the cellules PC12, 2 mM for the cellules Bend.3 and MRCS) is then added for an incubation of 24 h. The concentrations of MGO for each cell type were chosen according to literature and a cytotoxicity test (CCK8) that we conducted. The solution of lyse is then added to each well for 30 min at room temperature. The cell lysates are then centrifuged at 200 g for 10 min. Twenty microliters of this cell lysate is then used for the ELISA according to the procedure described by the supplier. The cell lysates are as such applied to a plate covered with anti-Histones antibodies making it possible to view the fragmentation of the DNA. A peroxidase combined with anti-DNA antibodies then reacts in the presence of the substrate thereof, ABTS (diammonium 2,2′-azino-bis(3-ethylbenzothiazoline-6-sulphonate) and H2O2 in order to give a green derivative of which the optical density reflects the level of apoptosis. The measurement of the absorbance is taken at 405 nm using a Perkin Elmer 2103 Envision® microplate reader. A positive control is carried out in the presence of MGO alone.
The apoptosis of the cells is expressed by the mean±standard deviation of triplicates forming a representative experiment or of three independent experiments conducted in triplicate.

[4] = system: human fibroblasts (MRC-5); assay: Anti-apoptotic properties after MGO-induced apoptosis (ELISA) on MRC-5; format: cell-based; conditions: MRC-5, pretreated 1 h with 10 or 100 μM, then 2 mM MGO, 24 h
Protocol: as §1, §2

[5] = PC12, pretreated 30 min with 10 or 100 μM, then 1 mM MGO

Structure (SMILES)	adducts with the MDA with regards to the free scavenger [1]	anti-apoptotic properties [2]	anti-apoptotic properties [3, 5]	anti-apoptotic properties [4]	anti-apoptotic properties ([3]; PC12, pretreated 1 h, 100 μM, 1 mM MGO, three independent experiments in triplicate)
COc1cc(/C=C/C(=O)N2CCN(C(=O)CCC(N)CN)CC2)ccc1O (centres unmarked) [Compound 29a, (E)-4,5-diamino-1-(4-(3-(4-hydroxy-3-methoxyphenyl)acryloyl)piperazin-1-yl)pentan-1-one]	majority presence of AdD				
NCC(N)CCCCNC(=O)c1cc(O)c(O)c(O)c1 (centres unmarked) [Compound 30b, N-(5,6-diaminohexyl)-3,4,5-trihydroxybenzamide]		very interesting anti-apoptotic properties starting at 10 μM	this trend is confirmed at 100 μM		
NCC(N)CCCCNC(=O)CCn1cccc(O)c1=O (centres unmarked) [Compound 37b, N-(5,6-diaminohexyl)-3-(3-hydroxy-2-oxopyridin-1(2H)-yl)propanamide]				promising anti-apoptotic properties at 100 μM	
NCC(N)CCC(=O)NCCCn1cccc(O)c1=O (centres unmarked) [Compound 37c, 4,5-diamino-N-(3-(3-hydroxy-2-oxopyridin-1(2H)-yl)propyl)pentanamide]		very interesting anti-apoptotic properties starting at 10 μM	very interesting anti-apoptotic properties starting at 10 μM	promising anti-apoptotic properties at 100 μM	confirmed
